# Laboratory results: patent US20030171408A1, “Therapeutic method of delivering a medicament to avoid irritating effects on membranes of user” (priority 2002, published 2003)
# Columns and labels:
# [1] = cited from earlier work
# [2] = powder nasal spray, encapsulated in starch microspheres
# Experimental: A subject is administered nicotine by means of a powder nasal spray. The nicotine is prepared as the diacesulfamate and is encapsulated in starch microspheres.
# [3] = metered nasal spray 0.4 mg nicotine equivalent
# Experimental: A subject who was an addicted smoker was provided a metered nasal spray delivering 0.4 mg of nicotine equivalent in form of nicotine diacesulfamate. The nicotine salt was dissolved in water without any other additive ingredients.
# [4] = oral inhaler, water solution
# Experimental: A subject is administered nicotine by means of an oral inhaler. The nicotine is prepared as the diacesulfamate and is prepared in water solution.
# [5] = nasal, single doses of one mg, in man; cited from earlier work
smiles,measurement,setting,value
"CC1=CC(=O)NS(=O)(=O)O1 [Acesulfamic acid, 6-Methyl-1,2,3-Oxathiazin-4(3H)1,2,2-dioxide H]",solubility in alcohol and non-polar solvents,[1]; alcohol and non-polar solvents,soluble
same,solubility in water,[1]; water,only sparingly soluble
CC1=CC(=O)NS(=O)(=O)O1.CC1=CC(=O)NS(=O)(=O)O1.CN1CCC[C@H]1c1cccnc1 [nicotine diacesulfamate],burning feeling on administration,[2],No burning feeling is noted
same,relief from cravings to smoke,[2],relief from the cravings to smoke soon after use
same,relief from desire to smoke,"[3]; addicted smoker, dissolved in water, once in each nostril",relief from desire to smoke within two minutes
same,taste and feelings in the nostril,[3]; in water,"not unpleasant, but distinctive"
same,"irritation to nasal mucosa, throat or lungs","[3]; in water, once in each nostril","No report was made of any irritation to nasal mucosa, nor to the throat or lungs"
same,"burning feeling in buccal area, throat or lungs",[4],No burning feeling is noted
same,relief from craving to smoke,[4],relief from craving to smoke soon after use
CN1CCCC1c1cccnc1 (stereo not shown) [nicotine],time to maximum concentration,[5],≤ 10 min
